Test results: patent publication US6878742B2, “Heterocyclic sulfonamide inhibitors of beta amyloid production” (Wyeth, priority 2000, dated 2005)
Where “and” joins values, the source holds several entries; their conditions need not be identical. Equal values may be shown once.

System: amyloid precursor protein (APP) proteolysis
Assay: Repressor Release Assay (RRA)
Assay type: cell-based
Settings: Conc 1 μg/mL; luciferase activity over diluent control
Protocol: The beta amyloid inhibitory activity of many of the compounds of the present invention has been determined using the Repressor Release Assay (RRA). See, Table 23 below. A compound is considered active in RRA if it leads to at least a 1.5 fold increase in luciferase activity at 20 μM and is non-toxic.
The compounds generated as described in Examples 1 through 220 were tested in the RRA in accordance with published techniques [Shuey, D. J., Sheiffele, P., Jones, D., Cockett, M. I., and Quinet, E. M. (1999), “Repressor release: a useful tool for monitoring amyloid precursor protein (APP) proteolysis in mammalian cells”, Society for Neuroscience Abstracts, Vol. 25, 29th Annual Meeting of Society for Neuroscience, Miami Beach, Fla., Oct. 23-28, 1999]. Briefly, this assay is performed as follows.
CHO-K1 cells are cultured in whole DMEM media (DMEM—High Glucose with 10% fetal bovine serum, 1% Non-essential Amino Acids, and 1% Penicillin-Streptomycin) at 37° C. with 5% CO2. Two million cells are plated into 10-cm dishes 24 hrs prior to transfection.
Transient transfections are completed as recommended by Gibco BRL using their Lipofectamine Plus system. First, 6 μg of pRSVO-luc and 6 μg of APP-lacI construct DNA are added to 460 μL Opti-Mem transfection media and incubated with 30 μL Plus reagent for 15 minutes. Then, a lipid mixture of 40 μL Lipofectamine reagent and 460 μL Opti-Mem transfection media is incubated with the DNA-Plus reagent mixture for 15 minutes. During the DNA-lipid incubation, the CHO-K1 cells are washed once and covered in 5.0 mL DMEM media without Penicillin-Streptomycin. The DNA-lipid preparation is then layered onto these cells and incubated at 37° C. overnight.
One and one half million transfected cells per well (100 μL total volume) are plated into sterile, opaque Packard 96-well Cultur-Plates in clear DMEM whole media (DMEM—without phenol red) and incubated at 37° C. with 5% CO2 for 3-5 hours.
Compounds are diluted using two different protocols; one protocol is used for compounds supplied neat (weighed powder in vial) and the other protocol is used for compounds supplied in solution (20 mM in DMSO in 96-well plates). For both protocols, 25 mM Hepes and 25 mM Hepes/1% DMSO are prepared fresh to be used as diluent. The Hepes/DMSO is used as the diluent control on all experimental plates.
The following table depicts the steps for compound dilution (please note that the last step is the addition of compound to cells/media in tissue culture plate):
Because some compounds arrive in 96-well format at 20 mM, the following represents the protocol for their dilution (note that an average molecular weight of these compounds was used to calculate these dilutions and as above, the last step is the addition of compound to cells/media in tissue culture plate):
Once compounds are diluted, they are applied in duplicate on cells in tissue culture plates (prepared above). Cells are incubated with compound at 37° C. with 5% CO2 for an additional 36-48 hours.
Luciferase assays (LucLite reagent, Packard) are performed and are read on a Packard TopCount instrument. Media is removed from each 96-well plate and replaced with 100 μL PBS per well (with Mg^2+ and Ca^2+). An equal volume (100 μL) of the LucLite lysis/substrate buffer is added to each well and the plates are sealed and mixed in the dark on a rotary shaker for 15-30 minutes at room temperature. Luciferase readings are then taken on the TopCount instrument. Measurements are expressed as relative light units (RLU) and are calculated and analyzed in MS Excel as follows.
A compound is considered active in RRA if it leads to at least a 1.5 fold increase in luciferase activity at 20 μM and is non-toxic, as determined by loss of signal (≦0.75 fold increase). Fold increase is the amount of luciferase activity (measured in relative light units) over diluent control. SEM represents the standard error of the mean for fold increase (not shown).

Question: With CC[C@H](C)[C@@H](CO)NS(=O)(=O)c1ccc(Br)s1 [Example 2] as the compound, how does the “APPI Fold Increase” value read?
Answer: 1.79 fold and 1.54 fold

Same assay, conditions: Conc 3 μg/mL; luciferase activity over diluent control

Question: How did the “APPI Fold Increase” value turn out when CC(c1ccccc1)C(CO)NS(=O)(=O)c1ccc(Cl)s1 (mixture of isomers) [Example 14] was run?
Answer: 1.87 fold and 3.33 fold

Question: Which “APPI Fold Increase” value does the source give for CC[C@H](C)[C@@H](CO)NS(=O)(=O)c1ccc(Br)s1 [Example 2] here?
Answer: 2.96 fold and 2.34 fold

Same assay, conditions: Conc 10 μg/mL; luciferase activity over diluent control

Question: CC(c1ccccc1)C(CO)NS(=O)(=O)c1ccc(Cl)s1 (mixture of isomers) [Example 14] was tested. Which “APPI Fold Increase” value did it give?
Answer: 3.45 fold

Question: CC[C@H](C)[C@@H](CO)NS(=O)(=O)c1ccc(Br)s1 [Example 2] was tested. Which “APPI Fold Increase” value did it give?
Answer: 4.26 fold and 3.2 fold and 3.06 fold

Same assay, conditions: Conc 10 μg/mL; luciferase activity over diluent control; read-out: APPI Fold Increase

Question: With CC[C@H](C)[C@H](NS(=O)(=O)c1cccs1)C(O)C(C)(C)C (stereo partly drawn) [Example 145, N-{(S)-2-hydroxy-3,3-dimethyl-1-[(S)-1-methylpropyl]butyl}thiophene-2-sulfonamide] as the compound, how does the fold induction at 10 µg/mL read?
Answer: 1.72

Question: For CC#CC(O)[C@@H](NS(=O)(=O)c1cccs1)[C@@H](C)CC (stereo partly drawn) [Example 152, N-{(S)-2-hydroxy-1-[(S)-1-methylpropyl]pent-3-ynyl}thiophene-2-sulfonamide], which fold induction at 10 µg/mL is on record?
Answer: 1.51

Question: For CC[C@H](C)[C@H](NS(=O)(=O)c1ccc(Cl)s1)C(O)c1ccc(Cl)cc1 (stereo partly drawn) [Example 131, 5-chloro-N-{(S,S)-1-[(4-chlorophenyl)(hydroxy)methyl]-2-methylbutyl}thiophene-2-sulfonamide], which fold induction at 10 µg/mL is on record?
Answer: 3.64

Question: With CC[C@H](C)[C@H](NS(=O)(=O)c1cccs1)C(O)c1ccccc1C (stereo partly drawn) [Example 144, N-{(S,S)-1-[hydroxy(2-methylphenyl)methyl]-2-methylbutyl}thiophene-2-sulfonamide] as the compound, how does the fold induction at 10 µg/mL read?
Answer: 1.51

Question: Which fold induction at 10 µg/mL does the source give for CC[C@H](C)[C@H](NS(=O)(=O)c1ccc(Cl)s1)C(O)(c1ccccc1)c1ccccc1 [Example 164, 5-chloro-N-{(S,S)-1-[hydroxy(diphenyl)methyl]-2-methylbutyl}thiophene-2-sulfonamide] here?
Answer: 1.72

Question: Which fold induction at 10 µg/mL does the source give for CC[C@H](C)[C@H](NS(=O)(=O)c1cccs1)C(O)c1ccc(SC)cc1 (stereo partly drawn) [Example 153, N-((S,S)-1-{hydroxy[4-(methylthio)phenyl]methyl}-2-methylbutyl)thiophene-2-sulfonamide] here?
Answer: 2.09

Question: Which fold induction at 10 µg/mL does the source give for CCCCCC(O)[C@@H](NS(=O)(=O)c1cccs1)[C@@H](C)CC (stereo partly drawn) [Example 142, N-{(S)-2-hydroxy-1-[(S)-1-methylpropyl]heptyl}thiophene-2-sulfonamide] here?
Answer: 3.59

Question: With C=CC(O)[C@@H](NS(=O)(=O)c1cccs1)[C@@H](C)CC (stereo partly drawn) [Example 146, N-{(S)-2-hydroxy-1-[(S)-1-methylpropyl]but-3-enyl}thiophene-2-sulfonamide] as the compound, how does the fold induction at 10 µg/mL read?
Answer: 1.83

Question: For CC[C@H](C)[C@H](NS(=O)(=O)c1ccc(Cl)s1)C(O)c1ccc(SC)cc1 (stereo partly drawn) [Example 138, 5-chloro-N-((S,S)-1-{hydroxy[4-(methylthio)phenyl]methyl}-2-methylbutyl)thiophene-2-sulfonamide], which fold induction at 10 µg/mL is on record?
Answer: 3.54

Question: Which fold induction at 10 µg/mL does the source give for C=CCC(O)(CC=C)[C@@H](NS(=O)(=O)c1ccc(Cl)s1)[C@@H](C)CC [Example 165, N-{(S)-2-allyl-2-hydroxy-1-[(S)-1-methylpropyl]pent-4-enyl}-5-chlorothiophene-2-sulfonamide] here?
Answer: 1.73

Same assay, conditions: Conc 20 μg/mL; luciferase activity over diluent control

Question: With O=S(=O)(NC1(CO)Cc2ccccc2C1)c1ccc(Cl)s1 [Example 180] as the compound, how does the “APPI Fold Increase” value read?
Answer: 2.3 fold

Question: Which “APPI Fold Increase” value does the source give for “5-bromo-N-{(S,S)-2-hydroxy-1-[(S)-1-methylpropyl]pent-4-enyl}thiophene-2-sulfonamide [Example 194]” here?
Answer: 9 fold and 5.3 fold

Question: How did the “APPI Fold Increase” value turn out when “5-bromo-N-{(S,R)-2-hydroxy-1-[(S)-1-methylpropyl]pent-4-enyl}thiophene-2-sulfonamide [Example 195]” was run?
Answer: 4.2 fold and 6.7 fold

Question: With CC[C@H](C)[C@@H](CO)NS(=O)(=O)c1ccc(Br)s1 [Example 2] as the compound, how does the “APPI Fold Increase” value read?
Answer: 4.5 fold and 5.5 fold and 6.3 fold

Same assay, conditions: Conc 20 μg/mL; luciferase activity over diluent control; read-out: APPI Fold Increase

Question: With CC(=O)N1CCC(CO)(NS(=O)(=O)c2ccc(Cl)s2)CC1 [Example 203, N-[1-Acetyl-4-(hydroxymethyl)piperidin-4-yl]-5-chlorothiophene-2-sulfonamide] as the compound, how does the fold induction at 20 µg/mL read?
Answer: 1.5

Question: How did the fold induction at 20 µg/mL turn out when CC[C@H](C)[C@H](NS(=O)(=O)c1ccc(Cl)s1)C(O)C(F)(F)F (stereo partly drawn) [Example 196, 5-Chloro-N-[(S,S)-2-methyl-1-(2,2,2-trifluoro-1-hydroxyethyl)butyl]thiophene-2-sulfonamide] was run?
Answer: 20.7

Question: For O=S(=O)(NC1(CO)CC2CCC1C2)c1ccc(Br)s1 (centres unmarked) [Example 182, 5-bromo-N-[2-(hydroxymethyl)bicyclo[2.2.1]hept-2-yl]thiophene-2-sulfonamide], which fold induction at 20 µg/mL is on record?
Answer: 4.2

Question: How did the fold induction at 20 µg/mL turn out when CCCOC1CCC([C@@H](CO)NS(=O)(=O)c2ccc(Cl)s2)CC1 (stereo partly drawn) [Example 200, 5-chloro-N-[(S)-2-hydroxy-1-(4-propoxycyclohexyl)ethyl]thiophene-2-sulfonamide] was run?
Answer: 2

Question: For CCCCCC[C@H](CC)[C@@H](CO)NS(=O)(=O)c1ccc(Br)s1 [Example 78B, 5-bromo-N-[(1S,2S)-2-ethyl-1-(hydroxymethyl)octyl]thiophene-2-sulfonamide], which fold induction at 20 µg/mL is on record?
Answer: 23

Question: O=S(=O)(N[C@H](CO)Cc1ccccc1)c1ccc(Cl)s1 [Example 96, N-[(S)-1-benzyl-2-hydroxyethyl]-5-chlorothiophene-2-sulfonamide] was tested. Which fold induction at 20 µg/mL did it give?
Answer: 1.5

Question: For CC(C)(CO)NS(=O)(=O)c1ccc(Br)s1 [Example 107, 5-bromo-N-(2-hydroxy-1,1-dimethylethyl)thiophene-2-sulfonamide], which fold induction at 20 µg/mL is on record?
Answer: 1.5

Question: CCCC(CO)NS(=O)(=O)c1ccc(Cl)s1 (racemic) [Example 97, 5-chloro-N-[1-(hydroxymethyl)butyl]thiophene-2-sulfonamide] was tested. Which fold induction at 20 µg/mL did it give?
Answer: 1.8

Question: With CC[C@@H](C(C)C)[C@@H](CO)NS(=O)(=O)c1ccc(Br)s1 [Example 74, 5-bromo-N-[(1S,2S)-2-ethyl-1-(hydroxymethyl)-3-methylbutyl]thiophene-2-sulfonamide] as the compound, how does the fold induction at 20 µg/mL read?
Answer: 5.1

Question: CC[C@H](C)[C@@H](CO)NS(=O)(=O)c1ccc(F)s1 [Example 208, 5-Fluoro-N-[(1S,2S)-1-(hydroxymethyl)-2-methylbutyl]-2-thiophenesulfonamide] was tested. Which fold induction at 20 µg/mL did it give?
Answer: 16.5

Question: Which fold induction at 20 µg/mL does the source give for COC1CCC([C@@H](CO)NS(=O)(=O)c2ccc(Cl)s2)CC1 (stereo partly drawn) [Example 199, 5-Chloro-N-[(S)-2-hydroxy-1-(4-methoxycyclohexyl)ethyl]thiophene-2-sulfonamide] here?
Answer: 2.8

Question: Which fold induction at 20 µg/mL does the source give for CC(C)C[C@@H](c1ccccc1)[C@@H](CO)NS(=O)(=O)c1ccc(Br)s1 [Example 68, 5-bromo-N-[(1S,2S)-1-(hydroxymethyl)-4-methyl-2-phenylpentyl]thiophene-2-sulfonamide] here?
Answer: 2.3

Question: O=S(=O)(N[C@H](CO)C1CCC(NCc2ccccc2)CC1)c1ccc(Cl)s1 (stereo partly drawn) [Example 211, 5-Chloro-N-[(S)-2-hydroxy-1-(4-benzylaminocyclohexyl)ethyl]thiophene-2-sulfonamide] was tested. Which fold induction at 20 µg/mL did it give?
Answer: 1.9

Question: Which fold induction at 20 µg/mL does the source give for C=CCNC1CCC([C@@H](CO)NS(=O)(=O)c2ccc(Cl)s2)CC1 (stereo partly drawn) [Example 215, 5-chloro-N-[(S)-2-hydroxy-1-(4-allylaminocyclohexyl)ethyl]thiophene-2-sulfonamide] here?
Answer: 2

Question: CC(C)C[C@@H](C)[C@@H](CO)NS(=O)(=O)c1ccc(Br)s1 [Example 56, 5-bromo-N-[(1S,2R)-1-(hydroxymethyl)-2,4-dimethylpentyl]thiophene-2-sulfonamide] was tested. Which fold induction at 20 µg/mL did it give?
Answer: 6.8

Same assay, conditions: read-out: APPI Fold Increase

Question: For O=S(=O)(NC(CO)C1CCCC1)c1ccc(Cl)s1 (centres unmarked) [Example 24, 5-chloro-N-(1-cyclopentyl-2-hydroxyethyl)thiophene-2-sulfonamide], which fold induction at 20 µg/mL is on record?
Answer: 6
